Assay [1] concerns mOR256. As to the kind of experiment: Luminescent assay (cAMP-responsive luciferase reporter). Conditions: FIG. 6B; luciferase reporter read 5.5 hours after stimulation. The format is cell-based. A general note: A reporter such as luciferase makes a cellular process visible.
Assay [2] concerns the target T1, OR2W1 (Homo sapiens, UniProt Q9Y3N9).
T1 sequence (Q9Y3N9 1-320): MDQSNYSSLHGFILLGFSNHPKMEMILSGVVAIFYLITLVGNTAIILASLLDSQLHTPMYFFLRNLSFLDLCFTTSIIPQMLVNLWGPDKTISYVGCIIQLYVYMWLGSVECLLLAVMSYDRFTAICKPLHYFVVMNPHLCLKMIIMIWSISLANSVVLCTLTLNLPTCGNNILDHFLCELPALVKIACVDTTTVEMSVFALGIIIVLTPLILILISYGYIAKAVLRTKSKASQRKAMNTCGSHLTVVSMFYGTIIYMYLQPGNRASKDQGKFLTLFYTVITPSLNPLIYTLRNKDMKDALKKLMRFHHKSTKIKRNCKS
To be noted: cited from earlier work.

In assay [3] the test system is MOR272-1. Conditions: cited from earlier work.
The target of assay [4] is T2, OR1A1 (Homo sapiens, UniProt Q9P1Q5).
T2 sequence (Q9P1Q5 1-309): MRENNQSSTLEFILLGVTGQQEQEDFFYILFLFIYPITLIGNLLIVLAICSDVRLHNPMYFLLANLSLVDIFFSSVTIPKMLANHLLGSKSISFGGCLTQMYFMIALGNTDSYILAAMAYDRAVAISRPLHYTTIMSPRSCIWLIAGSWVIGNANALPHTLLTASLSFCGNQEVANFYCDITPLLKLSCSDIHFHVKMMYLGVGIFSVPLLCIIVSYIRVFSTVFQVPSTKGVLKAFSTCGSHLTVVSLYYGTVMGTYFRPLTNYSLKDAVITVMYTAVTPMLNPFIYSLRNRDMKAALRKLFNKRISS
Conditions: cited from earlier work.

The subject of assay [5] is MOR203-1. To be noted: cited from earlier work.
For assay [6], the target named is T2, OR1A1. As to the kind of experiment: Luminescent assay (cAMP-responsive luciferase reporter). Conditions: FIG. 6A; luciferase reporter read 5.5 hours after stimulation. The format is cell-based. The method, then: Cells are seeded at a density of 15,000 cells per well in a solid white 96-well microplate and allowed to adhere prior to be transfected with different plasmids including but not limited to 10 ng GPCR-expressing plasmid and 10 ng cAMP-responsive luciferase reporter plasmid. The day following the transfection, the receptor-expressing cells are then stimulated with the ligands being tested. After a period to 5.5 hours following the stimulation, the cells are lysed and the luciferase reporter activity is measured following the manufacturer protocol. The amount of luciferase activity is proportional to the ligand-mediated activation level of the exogenous GPCR. FIG. 6 is the result of luminescent assay showing dose response curves of OR1A1 for propylbenzene in FIG. 6A and 1-hexanol in FIG. 6B. The cells produce light by expressing a luciferase enzyme as a reporter readout from a cAMP secondary messenger. The ligand-mediated GPCR activation leads to intracellular cAMP accumulation which triggers a luciferase activity increase which is measured.

The subject of assay [7] is MOR271-1. Conditions: cited from earlier work.
The test system of assay [8] is exogenous ethylene benzene responsive GPCR. To be noted: pure 5 μL hanging droplet on plate lid, no direct contact; transfected human embryonic kidney cells; within minutes. The method, then: Transfected human embryonic kidney cells were seeded at 60,000 cells per well in a poly-D-lysine coated 96-well plate. The exogenous ethylene benzene responsive GPCR and calcium reporter were present in the cytosol. Pure ethylene benzene was deposited as a hanging 5 μL droplet on the plate lid. Once the plate was placed over the well, there was no direct contact between the […] and the culture medium overlaid cells.

The values below come from patent publication US20210318292A1, “System and Method to Detect Small Molecules” (Sensorium Bio, Inc., priority 2020, published 2021).

Each structure is given as a SMILES string.

`CCCCCCO` [1-hexanol]: the “detection by mOR256, luminescent assay dose response curve” value in assay [1] is “detection”.
On to `CCCCCCC(C)=O` [2-octanone], for which the “binding to receptor OR2W1” value in assay [2] was “bind differentially”. Also, the “binding to receptor MOR272-1” value in assay [3] was “bind differentially”. Besides, in assay [4], the “binding to receptor OR1A1” value is recorded as “bind differentially”. The “binding to receptor MOR203-1” value in assay [5] is reported as “bind differentially”.
As for `CCCc1ccccc1` [propylbenzene], the “detection by OR1A1, luminescent assay dose response curve” value in assay [6] is listed as “detection”.
`CCCCC(=O)CC` [3-heptanone]: the “binding to receptor OR2W1” value in assay [2] is listed as “bind differentially”. In assay [3], the “binding to receptor MOR272-1” value is “bind differentially”. In assay [7], the “binding to receptor MOR271-1” value was “bind differentially”. Also, the “binding to receptor OR1A1” value in assay [4] is listed as “bind differentially”. Besides, the “binding to receptor MOR203-1” value in assay [5] was “bind differentially”.
Turning to `C=C.c1ccccc1` [ethylene benzene], the “fluorescence of the calcium reporter after gas phase exposure” value in assay [8] is listed as “measurable fluorescence increase”.
